From patent US12441718B2, “Selective angiotensin II compounds” (VICORE PHARMA AB, priority 2021, dated 2025)
“And” between values parts separate entries of the source, which are not always exact repeats. Equal entries are not always repeated. Where two headings read alike, the source gives them in different places.

Experiments:
[1] = Metabolic stability in pooled human liver microsomes; type: in vitro ADME; conditions: pooled human liver microsomes 0.5 mg/mL, 1 μM test compound, 37° C., * rows = mean of two runs; for half-life at 1 μM: human, pooled human liver microsomes
Procedure: Pooled human liver microsomes in PBS at a concentration of 0.5 mg/mL was incubated with or without 1 mM NADPH for 70 min at 37° C. Test compound was added after 10 minutes to a final concentration of 1 μM. Samples were withdrawn at 0, 5, 15 and 60 minutes and added to test tubes containing acetonitrile, to stop the reaction, and with terfenadine, used as internal standard. After centrifugation at 10 000×g for 5 minutes the supernatant was diluted 1:1 with 1% formic acid. Samples were separated on a reverse phase column and detected by triple quadrupole MSMS (Agilant model 6540). The concentration of the parent compound at the different time points was measured with an external standard curve using terfenadine as internal standard and the initial metabolic rate in the presence or absence of NADPH calculated.

[2] = target: T1, human recombinant AT2 receptor (Homo sapiens, UniProt P50052); experiment: Binding to AT2 receptor, radiometric scintillation assay (Eurofins ITEM26); conditions: for Ki: seven-point dose-response curve
T1 construct: purchased Eurofins ITEM26 (protocol number)
T1 sequence (P50052 1-363): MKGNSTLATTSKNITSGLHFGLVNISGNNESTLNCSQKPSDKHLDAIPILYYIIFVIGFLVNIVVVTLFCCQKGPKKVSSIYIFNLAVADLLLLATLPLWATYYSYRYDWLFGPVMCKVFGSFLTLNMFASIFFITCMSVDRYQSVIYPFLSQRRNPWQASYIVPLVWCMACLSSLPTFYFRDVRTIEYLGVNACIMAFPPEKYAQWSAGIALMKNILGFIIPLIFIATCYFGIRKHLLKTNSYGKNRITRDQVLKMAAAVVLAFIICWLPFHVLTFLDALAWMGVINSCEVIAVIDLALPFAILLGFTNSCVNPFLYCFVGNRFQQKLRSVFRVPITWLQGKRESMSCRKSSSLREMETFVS

[3] = with 1 mM NADPH, read-out: T1/2, + NaDPH
[4] = without NADPH, read-out: T1/2, no NaDPH
[5] = ligand 125I CGP 42112A, * rows = mean of runs
[6] = test compounds at 1, 10, 100 and 1000 nM, ligand 125I CGP 42112A, * rows = mean of runs, read-out: AT2 GraFit IC50

| half-life at 1 μM [1, 3] [h] | half-life at 1 μM [1, 4] [h] | T1/2, + NaDPH ([1]; with 1 mM NADPH) [h] | T1/2, + NaDPH ([1]; with 1 mM NADPH, listed as Example 34*) [h] | Ki [2, 5] | IC50 [2, 6] | IC50 ([2]; AT2 GraFit IC50, value in parentheses after <0.3, value printed in parentheses behind the bound <0.3) [nM] | T1/2, + NaDPH ([1]; with 1 mM NADPH, listed as Example 33*) [h] | T1/2, + NaDPH ([1]; with 1 mM NADPH, listed as Example 31*) [h] | Compound |
| --- | --- | --- | --- | --- | --- | --- | --- | --- | --- |
| 0.75 | > 1 |  |  |  |  |  |  |  | CCc1nccn1Cc1ccc(-c2cc(CC(C)C)ccc2S(=O)(=O)Nc2ncccn2)cc1 [Example 40, 4′-((2-Ethyl-1H-imidazol-1-yl)methyl)-5-isobutyl-N-(pyrimidin-2-yl)-[1,1′-biphenyl]-2-sulfonamide] |
| 0.283 | > 1 | 0.183 | 0.233 | 38.3 nM and 24.5 nM and 31.4 nM | 76.6 nM and 49 nM and 62.8 nM |  |  |  | COc1cc(NS(=O)(=O)c2ccc(CC(C)C)cc2-c2ccc(Cn3ccnc3C(C)(C)C)cc2)nc(OC)n1 [Example 34, 4′-((2-(tert-Butyl)-1H-imidazol-1-yl)methyl)-N-(2,6-dimethoxypyrimidin-4-yl)-5-isobutyl-[1,1′-biphenyl]-2-sulfonamide] |
| 0.967 | > 1 |  |  | 1.38 nM | 2.76 nM |  |  |  | CC(C)Cc1ccc(S(=O)(=O)Nc2ncccn2)c(-c2ccc(Cn3ccnc3)cc2)c1 [Example 38, 4′-((1H-Imidazol-1-yl)methyl)-5-isobutyl-N-(pyrimidin-2-yl)-[1,1′-biphenyl]-2-sulfonamide] |
| > 1 | > 1 |  |  |  |  |  |  |  | CC(C)Cc1ccc(S(=O)(=O)Nc2ncccn2)c(-c2ccc(Cn3ccnc3C3CC3)cc2)c1 [Example 41, 4′-((2-Cyclopropyl-1H-imidazol-1-yl)methyl)-5-isobutyl-N-(pyrimidin-2-yl)-[1,1′-biphenyl]-2-sulfonamide] |
| > 1 | > 1 |  |  |  |  |  |  |  | CC(C)Cc1cc(-c2ccc(Cn3ccnc3)c(F)c2)c(S(=O)(=O)Nc2ncccn2)s1 [Example 48, 3-(4-((1H-Imidazol-1-yl)methyl)-3-fluorophenyl)-5-isobutyl-N-(pyrimidin-2-yl)thiophene-2-sulfonamide] |
| > 1 | > 1 |  |  |  |  |  |  |  | CC(C)Cc1cc(-c2ccc(Cn3ccnc3C(C)(C)C)cc2)c(S(=O)(=O)Nc2ncccn2)s1 [Example 16, 3-(4-((2-(tert-Butyl)-1H-imidazol-1-yl)methyl)phenyl)-5-isobutyl-N-(pyrimidin-2-yl)thiophene-2-sulfonamide] |
| 0.7 | > 1 |  |  | 5.99 nM | 12 nM |  |  |  | COc1cnc(NS(=O)(=O)c2ccc(CC(C)C)cc2-c2ccc(Cn3ccnc3C(C)(C)C)cc2)nc1 [Example 36, 4′-((2-(tert-Butyl)-1H-imidazol-1-yl)methyl)-5-isobutyl-N-(5-methoxypyrimidin-2-yl)-[1,1′-biphenyl]-2-sulfonamide] |
| > 1 | > 1 |  |  |  |  |  |  |  | CC(C)Cc1ccc(S(=O)(=O)Nc2ncccn2)c(-c2ccc(Cn3ccnc3C(C)(C)O)cc2)c1 [Example 15, 4′-((2-(2-Hydroxypropan-2-yl)-1H-imidazol-1-yl)methyl)-5-isobutyl-N-(pyrimidin-2-yl)-[1,1′-biphenyl]-2-sulfonamide] |
|  |  |  |  |  | < 0.3 nM | 0.25 |  |  | Cc1nccn1Cc1ccc(-c2cc(CC(C)C)ccc2S(=O)(=O)Nc2ncccn2)cc1F [Example 53, Potassium ((3′-fluoro-5-isobutyl-4′-((2-methyl-1H-imidazol-1-yl)methyl)-[1,1′-biphenyl]-2-yl)sulfonyl)(pyrimidin-2-yl)amide] |
| > 1 | > 1 |  |  |  |  |  |  |  | CC(C)Cc1ccc(S(=O)(=O)Nc2ncccn2)c(-c2ccc(Cn3ccnc3C3CC3)c(F)c2)c1 [Example 42, 4′-((2-Cyclopropyl-1H-imidazol-1-yl)methyl)-3′-fluoro-5-isobutyl-N-(pyrimidin-2-yl)-[1,1′-biphenyl]-2-sulfonamide] |
| 0.2 | > 1 | 0.217 |  | 1.13 nM and 7.18 nM and 4.16 nM | 2.25 nM and 14.4 nM and 8.33 nM |  | 0.208 |  | CC(C)Cc1ccc(S(=O)(=O)Nc2ccsn2)c(-c2ccc(Cn3ccnc3C(C)(C)C)cc2)c1 [Example 33, 4′-((2-(tert-Butyl)-1H-imidazol-1-yl)methyl)-5-isobutyl-N-(isothiazol-3-yl)-[1,1′-biphenyl]-2-sulfonamide] |
| > 1 | > 1 |  |  | 0.58 nM | 1.16 nM |  |  |  | Cc1nccn1Cc1ccc(-c2cc(CC(C)C)ccc2S(=O)(=O)Nc2ncccn2)cc1 [Example 37, 5-Isobutyl-4′-((2-methyl-1H-imidazol-1-yl)methyl)-N-(pyrimidin-2-yl)-[1,1′-biphenyl]-2-sulfonamide] |
| > 1 | > 1 |  |  |  |  |  |  |  | CC(C)Cc1ccc(S(=O)(=O)Nc2ncccn2)c(-c2ccc(Cn3ccnc3C(C)(C)C)cc2)c1 [Example 17, 4′-((2-(tert-Butyl)-1H-imidazol-1-yl)methyl)-5-isobutyl-N-(pyrimidin-2-yl)-[1,1′-biphenyl]-2-sulfonamide] |
| 0.783 | > 1 | 0.583 |  | 1.21 nM and 1.84 nM and 1.53 nM | 2.43 nM and 3.68 nM and 3.06 nM |  |  | 0.683 | COc1cnc(NS(=O)(=O)c2ccc(CC(C)C)cc2-c2ccc(Cn3ccnc3C(C)(C)C)c(F)c2)nc1 [Example 31, 4′-((2-(tert-Butyl)-1H-imidazol-1-yl)methyl)-3′-fluoro-5-isobutyl-N-(5-methoxy-pyrimidin-2-yl)-[1,1′-biphenyl]-2-sulfonamide] |
| > 1 | > 1 |  |  | 0.77 nM | 1.53 nM |  |  |  | CC(C)Cc1cc(-c2ccc(Cn3ccnc3C3CC3)cc2)c(S(=O)(=O)Nc2ncccn2)s1 [Example 52, 3-(4-((2-Cyclopropyl-1H-imidazol-1-yl)methyl)phenyl)-5-isobutyl-N-(pyrimidin-2-yl)thiophene-2-sulfonamide] |
| > 1 | > 1 |  |  | 0.33 nM | 0.65 nM |  |  |  | CC(C)Cc1cc(-c2ccc(Cn3ccnc3C(C)C)c(F)c2)c(S(=O)(=O)Nc2ncccn2)s1 [Example 46, 3-(3-Fluoro-4-((2-isopropyl-1H-imidazol-1-yl)methyl)phenyl)-5-isobutyl-N-(pyrimidin-2-yl)thiophene-2-sulfonamide] |
| > 1 | > 1 |  |  | 0.3 nM | 0.6 nM |  |  |  | CC(C)Cc1cc(-c2ccc(Cn3ccnc3C(C)(C)C)c(F)c2)c(S(=O)(=O)Nc2ncccn2)s1 [Example 43, 3-(4-((2-(tert-Butyl)-1H-imidazol-1-yl)methyl)-3-fluorophenyl)-5-isobutyl-N-(pyrimidin-2-yl)thiophene-2-sulfonamide] |
| 0.95 | > 1 |  |  |  |  |  |  |  | CC(C)Cc1ccc(S(=O)(=O)Nc2ncccn2)c(-c2ccc(Cn3ccnc3C(C)C)cc2)c1 [Example 39, 5-Isobutyl-4′-((2-isopropyl-1H-imidazol-1-yl)methyl)-N-(pyrimidin-2-yl)-[1,1′-biphenyl]-2-sulfonamide] |
